Entries after “also recorded” stand apart in the source; their conditions may differ.

For assay [1], the target named is T1, recombinant mouse A3 receptors (Mus musculus, UniProt Q61618).
T1 construct: expressed in transfected cells
T1 sequence (Q61618 1-319): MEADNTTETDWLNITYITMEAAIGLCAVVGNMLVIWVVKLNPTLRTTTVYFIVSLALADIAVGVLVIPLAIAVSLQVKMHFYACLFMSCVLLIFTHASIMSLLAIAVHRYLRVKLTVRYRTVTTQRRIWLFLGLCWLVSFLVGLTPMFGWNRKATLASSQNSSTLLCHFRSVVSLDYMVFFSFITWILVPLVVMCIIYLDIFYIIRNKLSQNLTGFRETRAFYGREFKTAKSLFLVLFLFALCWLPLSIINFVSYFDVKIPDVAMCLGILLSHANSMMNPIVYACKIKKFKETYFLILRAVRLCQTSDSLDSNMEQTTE
The assay can be described thus: Radioligand competition binding to recombinant mouse A3 receptor (HEK293 membranes). To be noted: high affinity conformational state, means ± SEM, at least six experiments, read-out: Binding affinity (Ki) A3R. As for the experimental part:
Membranes from HEK293 cells stably expressing recombinant mouse A2ARs or A3Rs were used for competition binding assays with [^125I]N6-4-amino-3-iodobenzyladenosine for the A3AR or [^125I]2-[2-(4-amino-3-iodophenyl)ethylamino]adenosine for the A2AR as described previously (Lappas et al., 2005a). Radioligand binding experiments were performed with 25 μg of HEK293 cell membrane protein in a total volume of 0,1 ml of 10 MM HEPES with 1 mM EDTA (pH 7.4) supplemented with 2 Unit/ml adenosine deaminase and 5 mM MgCl2. Nonspecific binding was measured in the presence of 100 μM NECA. The incubation time was 120 min at room temperature. Membranes were filtered on Millipore MultiScreen 96-well filtration plates and washed three times with ice-cold buffer (10 mM Tris, 1 mM MgCl2, pH 7,4) using a Brandel 96-well plate washer. The data were fit to a four-parameter logistic equation. IC50 values were determined using GraphPad Prism, and Ki values calculated (Linden, 1982).
. It is important to note that unlike human receptors, in the mouse, the selectivity of all of these agonist compounds for the A2A over the A3 receptor is limited, and the administration of these compounds to mice is expected to produce some degree of A3 receptor activation. […]. Activation of the A3 receptor may exacerbate inflammation by enhancing the degranulation of rodent mast cells (Jin et al., 1997; Ramkumar et al., 1993, Reeves et al., 1997); although tissue protection by A3 receptor activation also has been noted (Rivo et al., 2004). […]

Assay [2] relates to spinal cord compression injury, locomotor function. As to the kind of experiment: Spinal cord compression injury, locomotor assessment (mBBB). To be noted: for locomotor function (mBBB score) after spinal cord compression: wild type mice, IP from 5 min before compression, twice daily 4 days, days 1-42, FIG. 2.
Protocol: Briefly, mice were anesthetized with a mixture of ketamine and xylazine and placed on a heating pad in a stereotaxic apparatus. A laminectomy was performed at T12 and two adjustable forceps were applied to the vertebra between T11 to T13 to stabilize the spinal cord. Ischemic injury was produced by gently placing a 15 gram compression rod with 1 mm×2 mm rectangular surface onto the intact durra for 5 minutes. […] Injured mice were assessed on post-SCI days 1, 4, 7, 14, 28, and 42. Sham animals received a laminectomy without spinal cord compression. Following SCI, bladders were expressed twice daily until return of normal bladder function.
Animals that were able to walk and scored greater than 14 based on rat BBB scoring criteria were further evaluated based on their ability to traverse steel bars without slipping. Mice were placed on bars 500 mm in length and 3 mm in thickness with decreasing widths: 20 mm (score 16), 15 mm (score 17), 10 mm (score 18), 7 mm (score 19), and 5 mm (score 20). […] Scores obtained from left and right hind limbs were averaged.
Statistical Analysis: Statistical analyses were conducted using SAS version 9.1 (SAS Institute Inc, Cary, N.C.). A mixed model (SAS Proc Mixed) was applied to determine the effect of drug treatment over time. Both the experimental condition (mouse genotype and/or drug) and the day were set as categorical variables. An autoregressive correlation structure was assumed for repeated measures in the entire study.
Assay [3] relates to contusive spinal cord injury, locomotor function. As to the kind of experiment: Contusive spinal cord injury, locomotor assessment (mouse BBB). Conditions: FIG. 13; for protection from contusive injury in Rag1 KO mice compared to Rag1 KO vehicle: Rag1 KO mice lacking mature lymphocytes.
Description: Female C57BL/6 wild type and Rag-1 KO mice lacking mature lymphocytes between 6-18 weeks of age were purchased from Jackson Laboratory (Bar Harbor, Me.). Adenosine 2A receptor gene deletion (A2AAR −/−, A2AAR knockout) mice were age-matched to their wild types with same genomic background (C57BL/6). Food and water were provided ad libitum before and after experiments. During the experiment period, animals were housed in a pathogen-free isolation barrier region with chip bedding.
Animals were subjected to comtusive spinal cord injury protocol. Briefly, mice were anesthetized with a mixture of ketamine and xylazine and placed on a heating pad in a stereotaxic apparatus. A laminectomy was performed at T12 and two adjustable forceps were applied to the vertebra between T11 to T13 to stabilize the spinal cord. Contusive spinal cord injury (SCI) was produced with an IH device (PSI, Lexington, Ky.) at a defined force from 30 to 100 Kdynes with a dwell time of 30 msec or 60 sec. […] Injured mice were assessed on days 1, 2, 3, 4, 7, 10, 14, 21, 28, 35, and 42 after injury. Sham animals (n=10) received a laminectomy without spinal cord compression. Following SCI, bladders were expressed twice daily until return of normal reflexive bladder function.
Statistical tests were performed using GraphPad™ Prism version 5 software (GraphPad Software, Inc., San Diego, Calif.). Differences in locomotor scores between groups was analyzed by two-way analysis of variance (ANOVA) employing Bonferroni post-tests for repeated measure comparisons. A P value <0.05 was considered to be significant.
In assay [4] the test system is spinal cord white matter / myelin after compression injury. The assay can be described thus: Spinal cord histology and myelin quantification after compression injury. The assay is classed as in vivo, mouse. The protocol: A section of spine between T10 and L1 was removed under anesthesia. The tissue was placed in 4.0% paraformaldehyde in phosphate buffered saline, pH 7.4, and rocked for 4 hours. The disc body, lamina, pedicle, spinous and transverse processes surrounding the cord were carefully removed and the cord trimmed to center the injured area in a 10 mm segment. After incubation at 4° C. overnight, tissues were washed in Dulbecco's phosphate buffered saline (PBS, pH 7.4) twice for 10 minutes, and transferred to cassettes in 70% ethanol for paraffin embedding. Five μm sections were collected at 500 μm intervals using a Leica RM2030 Rotary Microtome. Sections derived from the center of the 2 mm compression zone were stained with hematoxylin & eosin (HE) and eriochrome cyanine (EC) as described below. Slides were examined using an Olympus BX51 light microscope and photographed using an Olympus DP70 digital camera (4080×3072 pixels) with DP70-BSW-V1.2 Capture & Archiving Software.
Hematoxylin & Eosin (HE) Staining. Sections were deparaffinized at 37° C. twice each for 5 minutes in xylene, 100% ethanol, and 95% ethanol, then once for 5 minutes in 70% ethanol and twice for 5 minutes in dH2O. Slides were stained in filtered hematoxylin for 60 seconds and washed in tap water for 3 minutes, stained in Eosin Y for 30 seconds and washed in tap water for 3 minutes. After the slide was dehydrated to xylene, a coverslip was applied.
Eriochrome Cyanine (EC) Staining. The protocol for staining myelin was obtained from the NINDS Spinal Cord Injury Training Course 2004 (The Ohio State University, Columbus, Ohio) and used with minor modifications. […]
Spinal Cord Cross Sectional Area and Myelin Quantification. Total cross-sectional area was measured to determine the extent of spinal cord atrophy, Cross-sectional area stained with EC was calculated by image analysis to evaluate damage of the sagittal myelinated tracts. […] The loss in white matter of each sample was calculated as % of total area stained in respective areas of control samples.

For assay [5], the target named is T2, recombinant mouse A2A receptors (Mus musculus, UniProt Q60613).
T2 construct: expressed in transfected cells
T2 sequence (Q60613 whole entry): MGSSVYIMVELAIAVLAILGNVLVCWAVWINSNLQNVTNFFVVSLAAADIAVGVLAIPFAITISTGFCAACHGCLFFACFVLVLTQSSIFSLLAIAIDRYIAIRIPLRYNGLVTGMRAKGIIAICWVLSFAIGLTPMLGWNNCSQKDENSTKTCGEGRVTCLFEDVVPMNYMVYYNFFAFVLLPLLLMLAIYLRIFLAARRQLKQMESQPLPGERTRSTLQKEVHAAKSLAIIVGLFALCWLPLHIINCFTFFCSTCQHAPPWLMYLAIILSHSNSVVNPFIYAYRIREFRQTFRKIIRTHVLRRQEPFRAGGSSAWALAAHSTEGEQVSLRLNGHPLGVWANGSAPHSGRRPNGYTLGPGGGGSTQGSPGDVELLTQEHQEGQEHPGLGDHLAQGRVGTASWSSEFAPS
The assay can be described thus: Radioligand competition binding to recombinant mouse A2A receptor (HEK293 membranes). Conditions: for Ki: high affinity conformational state, recombinant mouse A2A receptor, means ± SEM, at least six experiments, read-out: Binding affinity (Ki) A2AR; for A3/A2A: ratio of Ki at mouse A3R to Ki at mouse A2AR. As for the experimental part:
Nonspecific binding was measured in the presence of 100 μM NECA. The incubation time was 120 min at room temperature. Membranes were filtered on Millipore MultiScreen 96-well filtration plates and washed three times with ice-cold buffer (10 mM Tris, 1 mM MgCl2, pH 7,4) using a Brandel 96-well plate washer. The data were fit to a four-parameter logistic equation.

The target in assay [6] is recombinant human A2A receptors (Homo sapiens, UniProt P29274). Conditions: recombinant human receptors (Rieger et al., 2001); cited from earlier work.
recombinant human A2A receptors, sequence (P29274 whole entry): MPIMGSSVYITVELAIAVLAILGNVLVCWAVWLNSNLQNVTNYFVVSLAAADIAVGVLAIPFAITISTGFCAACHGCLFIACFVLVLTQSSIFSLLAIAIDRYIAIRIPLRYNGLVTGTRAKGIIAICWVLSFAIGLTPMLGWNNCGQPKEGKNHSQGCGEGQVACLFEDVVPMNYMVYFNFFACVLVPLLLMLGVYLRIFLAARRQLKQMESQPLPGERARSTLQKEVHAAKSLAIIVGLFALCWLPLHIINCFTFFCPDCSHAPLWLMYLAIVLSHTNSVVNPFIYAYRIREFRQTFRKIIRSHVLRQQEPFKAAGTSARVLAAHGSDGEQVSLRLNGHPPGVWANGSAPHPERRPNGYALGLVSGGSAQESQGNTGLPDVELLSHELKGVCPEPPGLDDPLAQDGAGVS
The subject of assay [7] is spinal cord compression injury in bone marrow chimera mice. The assay can be described thus: Spinal cord compression injury in bone marrow chimera and A2AR KO mice, locomotor assessment. The assay is classed as in vivo, mouse. As for the experimental part:
Female mice 7-9 weeks of age were irradiated twice with 600 Rads separated by 4 hours. Bone marrow donor mice 12 weeks of age were sacrificed by a lethal injection of sodium pentobarbital. Bone marrow cells were harvested from femurs and tibia by flushing with RPMI-1640 medium (Invitrogen Corporation, Grand Island, N.Y.) in the presence of 10% heat-inhibited fetal bovine serum (FBS). Connective tissue and debris were carefully removed by washing and centrifuging. Red blood cells were lysed by 1× ZAP-OGLOBIN® II lytic Reagent (Beckman Coulter, Miami, Fla.). Recipient mice were anesthetized intraperitoneally with a mixture of 100 mg/ml ketamine and 20 mg/ml xylazine in saline solution. An aliquot of approximately 2×10^6 cells in 200 μl RPMI-1640 with 10% FBS was injected intravenously through left or right jugular vein. BMT mice were used for experiments after 6 weeks. We have previously shown that this procedure results in efficient repopulation of BMDC cells to irradiated mice (Day et al., 2005).

Take `CCNC(=O)[C@H]1O[C@@H](n2cnc3c(N)nc(NCCc4ccc(CCC(=O)O)cc4)nc32)[C@H](O)[C@@H]1O` [CGS21680, 2-[4-(2-carboxyethyl)phenethylamino]-5′-N-ethylcarboxamido-adenosine, reference compound]: the Ki in assay [1] turned out to be 160 ± 20 nM.
As for `COC(=O)N1CCC(CC#Cc2nc(N)c3ncn(C4OC(C(=O)NC5CC5)C(O)C4O)c3n2)CC1` (stereo not drawn) [ATL313, 4-{3-[6-amino-9-(5-cyclopropylcarbamoyl-3,4-dihydroxy-tetrahydro-furan-2-yl)-9H-purin-2-yl]-prop-2-ynyl}-piperidine-1-carboxylic acid methyl ester], the “protection from spinal cord compression injury (mBBB)” value in assay [2] (2 nmol/kg IP, FIG. 2A) was “no significant protection”; in assay [2] (dose increased from 6 to 20 nmol/kg IP, FIG. 2A), “does not produce additional protection”. The “protection from compression injury with delayed treatment” value in assay [2] (3 nmol/kg IP, delay 0, 5 or 20 min after SCI, two-way ANOVA, FIG. 9) is on record as “significant”. Moreover, the “locomotor protection by agonist combined with antagonist” value in assay [2] (6 nmol/kg ATL313 with equimolar ZM241385, FIG. 2D) was “Early blockade; also recorded: completely blocked”. Further, in assay [2] (6 nmol/kg IP 10-15 seconds after terminating compression, compared with start before compression, FIG. 8), the “protection when treatment starts just after compression (onset of reperfusion)” value is given as “reduces locomotor dysfunction; also recorded: equal protection; also recorded: same reduction in SCI”. The molecule further gave a mBBB score in assay [2] (6 nmol/kg, day 42 after compression, same animals as myelin analysis, vehicle 5.0±1.4, FIG. 4) of 11.3±0.8. The “optimal dose to reduce SCI (mBBB locomotor score)” value in assay [2] (IP twice daily for 4 days during and following compression, FIG. 2A) was determined as 6 nmol/kg. Moreover, the “reversal of protection by delay of administration” value in assay [2] (delay 20 minutes, FIG. 9 legend) is on record as “partially”. In addition, the “locomotor function (mBBB score) after spinal cord compression” value in assay [2] (6 nmol/kg) was “significant and sustained increase; also recorded: improved locomotor function at all time points”. Further, in assay [3], the “protection from contusive injury in Rag1 KO mice compared to Rag1 KO vehicle” value is listed as “no evidence of additional protection”. Besides, the “morphological manifestations of long-term spinal cord injury (H&E, EC)” value in assay [4] (6 nmol/kg, day 42, FIG. 3) was “substantially reversed”. For the same molecule, in assay [4] (6 nmol/kg, day 42 after compression, vehicle 61.0%±3.6%), the “spared myelin (EC-stained area, normalized to sham/uninjured)” value was determined as 81.9±0.9%. Moreover, the “average ratio of spinal cord white area (injured/sham)” value in assay [4] (day 42, N=3-4, P<0.05, vehicle 61.3±3.6) is listed as 81.9±0.9. In assay [5], the “selectivity for the mouse A2A over the A3 receptor” value came out at 12 fold. Moreover, the figures for the Ki in assay [5] and in assay [1] were 1.58 ± 0.48 nM and 19.3 ± 3.3 nM, respectively. For the same molecule, the A3/A2A in assay [5] worked out at 12.2. Moreover, in assay [6], the “affinity and selectivity for human A2A receptor over other adenosine receptor subtypes” value is “highly selective”. The “protection of locomotor function in mice lacking A2ARs on BMDC cells” value in assay [7] (KO/WT chimera or global A2AR KO, FIGS. 5B, 6) was “not KO/WT chimera; also recorded: not protected; also recorded: completely absent”. In assay [7] (WT marrow into A2AR KO recipients, FIGS. 5C, 6, 7), the “protection of locomotor function in WT/KO chimera” value is reported as “greatest protection”. Further, in assay [7] (WT, WT/WT and WT/KO mice, FIGS. 5, 6), the “protection of locomotor function in mice with A2ARs on BMDC cells” value is “protects WT/WT; also recorded: protected”.
Consider `CCNC(=O)C1OC(n2cnc3c(N)nc(C#CCC4CCN(C(=O)OCC(C)C)CC4)nc32)C(O)C1O` (stereo not drawn) [ATL210, 4-{3-[6-amino-9-(5-ethylcarbamoyl-3,4-dihydroxy-tetrahydro-furan-2-yl)-9H-purin-2-yl]-prop-2-ynyl}-piperidine-1-carboxylic acid isobutyl ester], for which, in assay [5], the Ki was found to be 1.04 ± 0.26 nM and the A3/A2A was found to be 5.2. For the same molecule, the Ki in assay [1] was found to be 5.4 ± 0.7 nM.
`CCNC(=O)C1OC(n2cnc3c(N)nc(C#CCC4CCC(C(=O)OC)CC4)nc32)C(O)C1O` (stereo not drawn) [ATL146e, 4-{3-[6-Amino-9-(5-ethylcarbamoyl-3,4-dihydroxy-tetrahydro-furan-2-yl)-9H-purin-2-yl]-prop-2-ynyl}cyclo-hexanecarboxylic acid methyl ester]: the Ki in assay [1] stood at 3.3 ± 2 nM.
Consider `Nc1nc(NCCc2ccc(O)cc2)nc2nc(-c3ccco3)nn12` [ZM241385, 4-(2-[7-Amino-2-[2-furyl][1,2,4]triazolo[2,3-a][1,3,5]triazin-5-yl-amino]ethyl)phenol, reference compound], for which, in assay [2] (6 nol/kg IP twice daily for 4 days after delay of 1, 3, 5 or 7 days, FIG. 10), the “reduction of compressive injury with delayed antagonist treatment” value is reported as “Protection is maintained; also recorded: significant compared to vehicle for all delay periods”. The “locomotor function (mBBB score) after spinal cord compression” value in assay [2] (6 nmol/kg) is “improvement in locomotor function that was similar to the effect of the agonist”. The “protection from contusive injury in Rag1 KO mice compared to Rag1 KO vehicle” value in assay [3] was “did not significantly improve protection”. For the same molecule, the “protection from contusive injury in Rag1 KO mice compared to vehicle” value in assay [3] (Rag1 KO mice, compared to vehicle controls, P=0.0015) is listed as “significant protection”. Besides, the Ki in assay [1] turned out to be 16100 nM.
As for `CCNC(=O)[C@H]1O[C@@H](n2cnc3c(N)nc(C#CCC4CCN(C(=O)OC)CC4)nc32)[C@H](O)[C@@H]1O` [ATL202, 4-{3-[6-amino-9-(5-ethyl-carbamoyl-3,4-dihydroxy-tetrahydro-furan-2-yl)-9H-purin-2-yl]-prop-2-ynyl}-piperidine-1-carboxylic acid methyl ester], the Ki was found to be 1.5 ± 0.55 nM in assay [5] and 3.7 ± 0.4 nM in assay [1].

The values above are taken from patent US8188063B2, “Use of adenosine A2A modulators to treat spinal cord injury” (University of Virginia Patent Foundation, priority 2006, dated 2012).
